From the NIST ThermoML archive (doi:10.1016/j.fluid.2014.02.006) come the findings set out here.

A short description of data set [1]: refractive index (Na D-line) (dimensionless). To be noted: 298.15 K; 101.33 kPa; Liquid; Standard Abbe refractometry.
For data set [2] the following is noted: 298.15 K; 101.33 kPa; Liquid; Vibrating tube method.

Numbers after ± are expanded uncertainties.

In the case of `CC(C)O` [propan-2-ol], the refractive index (usually a measure of how strongly the sample bends light) in data set [1] came to 1.3752 ± 0.00032. Also, the mass density – broadly, the mass of a sample divided by its volume – in data set [2] is reported as 781.18 ± 0.15 kg/m3.

With `OCCCO` [propan-1,3-diol], the refractive index in data set [1] stood at 1.43851 ± 0.00032. In data set [2], the mass density is listed as 1049.68 ± 0.14 kg/m3.

Take `O` [water]: the refractive index in data set [1] is recorded as 1.33237 ± 0.00032.
